Patent US20260193271A1, “PAN-KRAS INHIBITOR COMPOUND” (ADLAI NORTYE BIOPHARMA CO., LTD., priority 2022, published 2026)

How the values were obtained:
AsPC-1 (G12D) = assay: In vitro cell proliferation inhibition test (CellTiter-Glo), AsPC-1; assay type: cell-based; conditions: Homo sapiens, ASPC1, AsPC-1 pancreas cell line, KRAS (p.G12D), 72 h co-incubation
From the text: (§1) Test Example 1: In Vitro Cell Proliferation Inhibition Test
(§2) Due to the diversity of RAS mutations and in order to evaluate the activity of compounds in different RAS mutation cell lines, we selected KRAS^WT, KRAS^G12C, KRAS^G12D, KRAS^G12V and BRAF mutation cell lines (see the table below) for in vitro activity evaluation and screening of compounds.
(§3) Protocol: CellTiter-Glo® Cell Luminescent Viability Assay (Promega)
(§4) According to the doubling time of different cell lines, different numbers of cells (1000-5000 cells/well) were seeded in 96-well plates containing 180 μl of corresponding culture medium and cultured overnight in a cell culture incubator at 37° C. with 5% CO2. On the second day, the test compound was pre-diluted 3-fold with culture medium, with the highest concentration being 100 μM, for a total of 10 concentration gradients; then 20 μl of culture medium containing different concentrations of the compound was added to the cells in the 96-well plate to ensure that the final concentration of the compound was up to 10 μM, with 10 concentration gradients of 3-fold dilution. After the cells and compounds were co-incubated for 72 h, the 96-well plate was removed from the incubator and equilibrated at room temperature for 30 min. Then, 25 μl of CellTiter-Glo® Reagent was added to each well and mixed thoroughly. The mixture was incubated at room temperature for 10 min, and then 100 μl of the sample was transferred to a white 96-well plate (OptiPlate™-96, PerkinElmer). The […] signal value was read using a multi-function microplate reader (SpectraMax® i3x, Molecular devices). The signal values were then standardized, and the curve was fitted using a four-parameter regression equation to calculate the half maximal inhibitory concentration (IC50) of the compound on the cell line.

SW480 (G12V) = assay: In vitro cell proliferation inhibition test (CellTiter-Glo), SW480; assay type: cell-based; conditions: Homo sapiens, SW480 colon cell line, KRAS (p.G12V), 72 h co-incubation
From the text: as §1, §2, §3, §4

## CCn1c(-c2cc(-c3cnc(CN4CCOCC4)cn3)cnc2[C@H](C)OC)c2c3cc(ccc31)-c1csc(n1)C[C@H](NC(=O)[C@H]1C[C@@H]1C)C(=O)N1CCC[C@H](N1)C(=O)OCC(C)(C)C2 (atropisomer, axis not shown) [Compound 35, (1S,2S)-N-((6^3S,4S,Z)-1^1-ethyl-1^2-(2-((S)-1-methoxyethyl)-5-(5-(morpholinomethyl)pyrazin-2-yl)pyridin-3-yl)-10,10-dimethyl-5,7-dioxo-6^1,6^2,6^3,6^4,6^5,6^6-hexahydro-1^1H-8-oxa-2(4,2)-thiazola-1(5,3)-indola-6(1,3)-pyridazinacycloundecaphane-4-yl)-2-methylcyclopropane-1-carboxamide]
AsPC-1 (G12D)
  IC50: 4 nM
SW480 (G12V)
  IC50: 2 nM

## CCn1c(-c2cc(-c3cnc(CN4CCS(=O)(=O)CC4)nc3)cnc2[C@H](C)OC)c2c3cc(ccc31)-c1csc(n1)C[C@H](NC(=O)[C@H]1C[C@@H]1C)C(=O)N1CCC[C@H](N1)C(=O)OCC(C)(C)C2 (atropisomer, axis not shown) [Compound 38, (1S,2S)-N-((6^3S,4S,Z)-1^2-(5-(2-((1,1-dioxidothiomorpholino)methyl)pyrimidin-5-yl)-2-((S)-1-methoxyethyl)pyridin-3-yl)-1^1-ethyl-10,10-dimethyl-5,7-dioxo-6^1,6^2,6^3,6^4,6^5,6^6-hexahydro-1^1H-8-oxa-2(4,2)-thiazola-1(5,3)-indola-6(1,3)-pyridazinacycloundecaphane-4-yl)-2-methylcyclopropane-1-carboxamide]
AsPC-1 (G12D)
  IC50: 66 nM
SW480 (G12V)
  IC50: 23 nM

## CCn1c(-c2cc(-c3cc4c(cn3)CN(C)C4)cnc2[C@H](C)OC)c2c3cc(ccc31)-c1csc(n1)C[C@H](NC(=O)[C@H]1C[C@@H]1C)C(=O)N1CCC[C@H](N1)C(=O)OCC(C)(C)C2 (atropisomer, axis not shown) [Compound 43, (1S,2S)-N-((6^3S,4S,Z)-1^1-ethyl-1^2-(2-((S)-1-methoxyethyl)-5-(2-methyl-2,3-dihydro-1H-pyrrolo[3,4-c]pyridin-6-yl)pyridin-3-yl)-10,10-dimethyl-5,7-dioxo-6^1,6^2,6^3,6^4,6^5,6^6-hexahydro-1^1H-8-oxa-2(4,2)-thiazola-1(5,3)-indola-6(1,3)-pyridazinacycloundecaphane-4-yl)-2-methylcyclopropane-1-carboxamide]
AsPC-1 (G12D)
  IC50: 17 nM
SW480 (G12V)
  IC50: 3.8 nM

## CCn1c(-c2cc(-c3ccc(CN4CCOCC4)nc3)cnc2[C@H](C)OC)c2c3cc(ccc31)-c1csc(n1)C[C@H](NC(=O)[C@H]1C[C@@H]1C)C(=O)N1CCC[C@H](N1)C(=O)OCC(C)(C)C2 (atropisomer, axis not shown) [Compound 5, (1S,2S)-N-((6^3S,4S,Z)-1^1-ethyl-1^2-(6-((S)-1-methoxyethyl)-6′-(morpholinomethyl)-[3,3′-bipyridin]-5-yl)-10,10-dimethyl-5,7-dioxo-6^1,6^2,6^3,6^4,6^5,6^6-hexahydro-1^1H-8-oxa-2(4,2)-thiazola-1(5,3)-indola-6(1,3)-pyridazinacycloundecaphane-4-yl)-2-methylcyclopropane-1-carboxamide]
AsPC-1 (G12D)
  IC50: 6 nM
SW480 (G12V)
  IC50: 10 nM

## CCn1c(-c2cc(-c3cnn([C@@H]4CCN(C)C4)c3)cnc2[C@H](C)OC)c2c3cc(ccc31)-c1csc(n1)C[C@H](NC(=O)[C@H]1C[C@@H]1C)C(=O)N1CCC[C@H](N1)C(=O)OCC(C)(C)C2 (atropisomer, axis not shown) [Compound 16, (1S,2S)-N-((6^3S,4S,Z)-1^1-ethyl-1^2-(2-((S)-1-methoxyethyl)-5-(1-((R)-1-methylpyrrolidin-3-yl)-1H-pyrazol-4-yl)pyridin-3-yl)-10,10-dimethyl-5,7-dioxo-6^1,6^2,6^3,6^4,6^5,6^6-hexahydro-1^1H-8-oxa-2(4,2)-thiazola-1(5,3)-indola-6(1,3)-pyridazinacycloundecaphane-4-yl)-2-methylcyclopropane-1-carboxamide]
AsPC-1 (G12D)
  IC50: 1.6 nM
SW480 (G12V)
  IC50: 7.9 nM

## CCn1c(-c2cc(-c3ccc(CN4CC[C@@H](O)C4)cn3)cnc2[C@H](C)OC)c2c3cc(ccc31)-c1csc(n1)C[C@H](NC(=O)[C@H]1C[C@@H]1C)C(=O)N1CCC[C@H](N1)C(=O)OCC(C)(C)C2 (atropisomer, axis not shown) [Compound 47, (1S,2S)-N-((6^3S,4S,Z)-1^1-ethyl-1^2-(5-(((R)-3-hydroxypyrrolidin-1-yl)methyl)-6′-((S)-1-methoxyethyl)-[2,3′-bipyridin]-5′-yl)-10,10-dimethyl-5,7-dioxo-6^1,6^2,6^3,6^4,6^5,6^6-hexahydro-1^1H-8-oxa-2(4,2)-thiazola-1(5,3)-indola-6(1,3)-pyridazinacycloundecaphane-4-yl)-2-methylcyclopropane-1-carboxamide]
AsPC-1 (G12D)
  IC50: 2.9 nM
SW480 (G12V)
  IC50: 6.1 nM

## CCn1c(-c2cc(-c3ccc(CN4CCOCC4)cn3)cnc2[C@H](C)OC)c2c3cc(ccc31)-c1csc(n1)C[C@H](NC(=O)[C@H]1C[C@@H]1C)C(=O)N1CCC[C@H](N1)C(=O)OCC(C)(C)C2 (atropisomer, axis not shown) [Compound 12, (1S,2S)-N-((6^3S,4S,Z)-1^1-ethyl-1^2-(6′-((S)-1-methoxyethyl)-5-(morpholinomethyl)-[2,3′-bipyridin]-5′-yl)-10,10-dimethyl-5,7-dioxo-6^1,6^2,6^3,6^4,6^5,6^6-hexahydro-1^1H-8-oxa-2(4,2)-thiazola-1(5,3)-indola-6(1,3)-pyridazinacycloundecaphane-4-yl)-2-methylcyclopropane-1-carboxamide]
AsPC-1 (G12D)
  IC50: 16 nM
SW480 (G12V)
  IC50: 6.6 nM

## CCn1c(-c2cc(-c3cnc(CN4CCN5CCOC[C@@H]5C4)nc3)cnc2[C@H](C)OC)c2c3cc(ccc31)-c1csc(n1)C[C@H](NC(=O)[C@H]1C[C@@H]1C)C(=O)N1CCC[C@H](N1)C(=O)OCC(C)(C)C2 (atropisomer, axis not shown) [Compound 61, (1S,2S)-N-((6^3S,4S,Z)-1^1-ethyl-1^2-(5-(2-(((S)-hexahydropyrazino[2,1-c][1,4]oxazin-8(1H)-yl)methyl)pyrimidin-5-yl)-2-((S)-1-methoxyethyl)pyridin-3-yl)-10,10-dimethyl-5,7-dioxo-6^1,6^2,6^3,6^4,6^5,6^6-hexahydro-1^1H-8-oxa-2(4,2)-thiazola-1(5,3)-indola-6(1,3)-pyridazinacycloundecaphane-4-yl)-2-methylcyclopropane-1-carboxamide]
AsPC-1 (G12D)
  IC50: 19 nM
SW480 (G12V)
  IC50: 20 nM

## CCn1c(-c2cc(-c3cnn(CCN4CCN(C)CC4)c3)cnc2[C@H](C)OC)c2c3cc(ccc31)-c1csc(n1)C[C@H](NC(=O)[C@H]1[C@H](C)[C@@H]1C)C(=O)N1CCC[C@H](N1)C(=O)OCC(C)(C)C2 (atropisomer, axis not shown) [Compound 19, (1r,2R,3S)-N-((6^3S,4S,Z)-1^1-ethyl-1^2-(2-((S)-1-methoxyethyl)-5-(1-(2-(4-methylpiperazin-1-yl)ethyl)-1H-pyrazol-4-yl)pyridin-3-yl)-10,10-dimethyl-5,7-dioxo-6^1,6^2,6^3,6^4,6^5,6^6-hexahydro-1^1H-8-oxa-2(4,2)-thiazola-1(5,3)-indola-6(1,3)-pyridazinacycloundecaphane-4-yl)-2,3-dimethylcyclopropane-1-carboxamide]
AsPC-1 (G12D)
  IC50: 0.57 nM
SW480 (G12V)
  IC50: 4.5 nM

## CCn1c(-c2cc(-c3cncc(CN4CCS(=N)(=O)CC4)c3)cnc2[C@H](C)OC)c2c3cc(ccc31)-c1csc(n1)C[C@H](NC(=O)[C@H]1[C@H](C)[C@@H]1C)C(=O)N1CCC[C@H](N1)C(=O)OCC(C)(C)C2 (atropisomer, axis not shown) [Compound 42, (1r,2R,3S)-N-((6^3S,4S,Z)-1^1-ethyl-1^2-(5′-((1-imino-1-oxido-16-thiomorpholino)methyl)-6-((S)-1-methoxyethyl)-[3,3′-bipyridin]-5-yl)-10,10-dimethyl-5,7-dioxo-6^1,6^2,6^3,6^4,6^5,6^6-hexahydro-1^1H-8-oxa-2(4,2)-thiazola-1(5,3)-indola-6(1,3)-pyridazinacycloundecaphane-4-yl)-2,3-dimethylcyclopropane-1-carboxamide]
AsPC-1 (G12D)
  IC50: 3 nM
SW480 (G12V)
  IC50: 3.5 nM

## CO[C@@H](C)c1ncc(-c2cnc(CN3CCOCC3)nc2)cc1-c1c2c3cc(ccc3n1CC(F)(F)F)-c1csc(n1)C[C@H](NC(=O)[C@H]1[C@H](C)[C@@H]1C)C(=O)N1CCC[C@H](N1)C(=O)OCC(C)(C)C2 (atropisomer, axis not shown) [Compound 44, (1r,2R,3S)-N-((6^3S,4S,Z)-1^2-(2-((S)-1-methoxyethyl)-5-(2-(morpholinomethyl)pyrimidin-5-yl)pyridin-3-yl)-10,10-dimethyl-5,7-dioxo-1^1-(2,2,2-trifluoroethyl)-6^1,6^2,6^3,6^4,6^5,6^6-hexahydro-1^1H-8-oxa-2(4,2)-thiazola-1(5,3)-indola-6(1,3)-pyridazinacycloundecaphane-4-yl)-2,3-dimethylcyclopropane-1-carboxamide]
AsPC-1 (G12D)
  IC50: 0.26 nM
SW480 (G12V)
  IC50: 0.35 nM
